Measurements reported in PubChem BioAssay (NCI).
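Results reflect a 48-hour exposure of cells in 96-well plates to compound at five concentrations. GI50 is the concentration that inhibits growth by half. TGI marks complete inhibition of growth.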

Columns and labels:
Assay in all cases: NCI-60 cell line screen, 48 h; in the data active means GI50 below about 0.43 µM; inactive means the rest
SK-OV-3 ovarian = system: SK-OV-3 ovarian
RPMI-8226 leukemia = system: RPMI-8226 leukemia
SK-MEL-28 melanoma = system: SK-MEL-28 melanoma
NCI-H522 lung = system: NCI-H522 lung
OVCAR-5 ovarian = system: OVCAR-5 ovarian
CAKI-1 renal = system: CAKI-1 renal
TK-10 renal = system: TK-10 renal
HOP-62 NSCLC = system: HOP-62 NSCLC
ACHN renal = system: ACHN renal
HL-60(TB) leukemia = system: HL-60(TB) leukemia
NCI/ADR-RES ovarian = system: NCI/ADR-RES ovarian
LOX IMVI melanoma = system: LOX IMVI melanoma
HCT-116 colon = system: HCT-116 colon
A549 NSCLC = system: A549 NSCLC
T-47D breast = system: T-47D breast
SF-268 CNS = system: SF-268 CNS
HT29 colon = system: HT29 colon
A498 renal = system: A498 renal
SNB-19 CNS = system: SNB-19 CNS
SW-620 colon = system: SW-620 colon
MCF7 breast = system: MCF7 breast
SK-MEL-5 melanoma = system: SK-MEL-5 melanoma
MOLT-4 leukemia = system: MOLT-4 leukemia
KM12 colon = system: KM12 colon
UACC-257 melanoma = system: UACC-257 melanoma
NCI-H460 lung = system: NCI-H460 lung
RXF 393 renal = system: RXF 393 renal
UACC-62 melanoma = system: UACC-62 melanoma
HCT-15 colon = system: HCT-15 colon
OVCAR-3 ovarian = system: OVCAR-3 ovarian
SF-539 CNS = system: SF-539 CNS
SK-MEL-2 melanoma = system: SK-MEL-2 melanoma
MDA-MB-435 = system: MDA-MB-435
HOP-92 NSCLC = system: HOP-92 NSCLC
SR leukemia = system: SR leukemia
IGROV1 ovarian = system: IGROV1 ovarian
HCC-2998 colon = system: HCC-2998 colon
BT-549 breast = system: BT-549 breast
K-562 leukemia = system: K-562 leukemia
UO-31 renal = system: UO-31 renal
SF-295 CNS = system: SF-295 CNS
CCRF-CEM leukemia = system: CCRF-CEM leukemia
COLO 205 colon = system: COLO 205 colon
786-0 renal = system: 786-0 renal
MDA-MB-231 breast = system: MDA-MB-231 breast
DU-145 prostate = system: DU-145 prostate
NCI-H23 lung = system: NCI-H23 lung
SNB-75 CNS = system: SNB-75 CNS
HS 578T breast = system: HS 578T breast
PC-3 prostate = system: PC-3 prostate
NCI-H226 lung = system: NCI-H226 lung
U251 CNS = system: U251 CNS
OVCAR-8 ovarian = system: OVCAR-8 ovarian
OVCAR-4 ovarian = system: OVCAR-4 ovarian
EKVX NSCLC = system: EKVX NSCLC
M14 melanoma = system: M14 melanoma
SN12C renal = system: SN12C renal

c1ccc2c(c1)CCCc1nnc3nc4ccccc4n3c1-2
18.4 µM: TGI (SF-539 CNS)
27.6 µM: TGI (KM12 colon)
> 100 µM: TGI (SK-OV-3 ovarian) | TGI (SK-MEL-28 melanoma) | TGI (OVCAR-5 ovarian) | TGI (CAKI-1 renal) | TGI (TK-10 renal) | TGI (HOP-62 NSCLC) | TGI (ACHN renal) | TGI (A549 NSCLC) | TGI (T-47D breast) | TGI (SF-268 CNS) | TGI (A498 renal) | TGI (SNB-19 CNS) | TGI (MCF7 breast) | TGI (SK-MEL-5 melanoma) | TGI (MOLT-4 leukemia) | TGI (UACC-257 melanoma) | TGI (UACC-62 melanoma) | TGI (HCT-15 colon) | TGI (SK-MEL-2 melanoma) | TGI (MDA-MB-435) | TGI (HOP-92 NSCLC) | TGI (IGROV1 ovarian) | TGI (BT-549 breast) | TGI (K-562 leukemia) | TGI (SF-295 CNS) | TGI (CCRF-CEM leukemia) | TGI (COLO 205 colon) | TGI (786-0 renal) | TGI (MDA-MB-231 breast) | TGI (DU-145 prostate) | TGI (NCI-H23 lung) | TGI (SNB-75 CNS) | TGI (HS 578T breast) | TGI (PC-3 prostate) | TGI (NCI-H226 lung) | TGI (OVCAR-4 ovarian) | TGI (EKVX NSCLC) | TGI (SN12C renal)
13.8 µM: TGI (HCT-116 colon)
30.5 µM: TGI (UO-31 renal)
25.7 µM: TGI (SR leukemia)
25.2 µM: TGI (M14 melanoma)
29.1 µM: TGI (RPMI-8226 leukemia)
24.2 µM: TGI (SW-620 colon)
24.1 µM: TGI (HCC-2998 colon) | TGI (U251 CNS)
10.9 µM: TGI (LOX IMVI melanoma)
16.6 µM: TGI (NCI-H460 lung)
32.7 µM: TGI (RXF 393 renal)
inactive: GI50 (SK-OV-3 ovarian) 7.78 µM | GI50 (RPMI-8226 leukemia) 2.96 µM | GI50 (SK-MEL-28 melanoma) 9.43 µM | GI50 (NCI-H522 lung) 12.7 µM | GI50 (OVCAR-5 ovarian) 9.28 µM | GI50 (CAKI-1 renal) 5.32 µM | GI50 (TK-10 renal) 6.8 µM | GI50 (HOP-62 NSCLC) 4.73 µM | GI50 (ACHN renal) 3.65 µM | GI50 (HL-60(TB) leukemia) 2.49 µM | GI50 (NCI/ADR-RES ovarian) 3.32 µM | GI50 (LOX IMVI melanoma) 2.61 µM | GI50 (HCT-116 colon) 3.35 µM | GI50 (A549 NSCLC) 3.66 µM | GI50 (T-47D breast) 5.49 µM | GI50 (SF-268 CNS) 5.73 µM | GI50 (HT29 colon) 10.1 µM | GI50 (A498 renal) 16.6 µM | GI50 (SNB-19 CNS) 7.5 µM | GI50 (SW-620 colon) 5.06 µM | GI50 (MCF7 breast) 4.1 µM | GI50 (SK-MEL-5 melanoma) 4.89 µM | GI50 (MOLT-4 leukemia) 4.49 µM | GI50 (KM12 colon) 5.37 µM | GI50 (UACC-257 melanoma) 5.27 µM | GI50 (NCI-H460 lung) 3.65 µM | GI50 (RXF 393 renal) 3.08 µM | GI50 (UACC-62 melanoma) 6.54 µM | GI50 (HCT-15 colon) 3.27 µM | GI50 (OVCAR-3 ovarian) 4.37 µM | GI50 (SF-539 CNS) 3.57 µM | GI50 (SK-MEL-2 melanoma) 28.3 µM | GI50 (MDA-MB-435) 7.32 µM | GI50 (HOP-92 NSCLC) 9.53 µM | GI50 (SR leukemia) 3.16 µM | GI50 (IGROV1 ovarian) 2.88 µM | GI50 (HCC-2998 colon) 6.45 µM | GI50 (BT-549 breast) 11.5 µM | GI50 (K-562 leukemia) 3.87 µM | GI50 (UO-31 renal) 3.08 µM | GI50 (SF-295 CNS) 9.01 µM | GI50 (CCRF-CEM leukemia) 3.68 µM | GI50 (COLO 205 colon) 4.78 µM | GI50 (786-0 renal) 5.12 µM | GI50 (MDA-MB-231 breast) 4.98 µM | GI50 (DU-145 prostate) 4.91 µM | GI50 (NCI-H23 lung) 7.31 µM | GI50 (SNB-75 CNS) 23 µM | GI50 (HS 578T breast) 20.5 µM | GI50 (PC-3 prostate) 7.87 µM | GI50 (NCI-H226 lung) 6.39 µM | GI50 (U251 CNS) 3.29 µM | GI50 (OVCAR-8 ovarian) 5.02 µM | GI50 (OVCAR-4 ovarian) 3.98 µM | GI50 (EKVX NSCLC) 4.02 µM | GI50 (M14 melanoma) 3.13 µM | GI50 (SN12C renal) 8.15 µM
74.1 µM: TGI (OVCAR-8 ovarian)
33 µM: TGI (NCI-H522 lung)
25.1 µM: TGI (NCI/ADR-RES ovarian)
78.2 µM: TGI (HL-60(TB) leukemia)
82.5 µM: TGI (HT29 colon)
37.8 µM: TGI (OVCAR-3 ovarian)
